{"source": "patent US10358434B2", "about": "“2-(3-pyridinyl)-1H-benzimidazole derivative compound and medicament containing same” (NIHON MEDI-PHYSICS CO., LTD., priority 2014, dated 2019)", "key": {"[1]": {"tested_on": "human adrenal gland section expressing aldosterone-producing adenoma", "assay": "In vitro autoradiography using human adrenal adenoma", "format": "binding", "conditions": "section of FIG. 17(a)", "summary_of_the_method": "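Frozen 7-μm sections of human adrenal bearing aldosterone-producing adenoma were immersed 10 min in radioligand (5-33 kBq/mL) in PBS with 1% fatty-acid-free BSA, washed, then exposed to imaging plates for 16-20 h. Equal-area ROI PSL in adenoma (B2) versus normal cortex (B1) gave B2/B1, corrected for nuclide half-life, added activity and exposure time.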"}, "[2]": {"assay": "In vivo kinetics experiment (radioactivity distribution)", "design": "species or system Wistar male rat", "conditions": "rat, caudal vein", "summary_of_the_method": "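Male Wistar rats (9 weeks) under isoflurane received approximately 1 to 3.7 MBq radiotracer in saline with 1 w/v % ascorbic acid by tail-vein injection. At 10, 30 and 60 min, rats were exsanguinated; blood, organs and remaining body weighed and counted, giving % ID/g and adrenal-to-tissue ratios.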"}, "[3]": {"assay": "Plasma stability evaluation (TLC analysis)", "format": "in vitro ADME", "conditions": "37° C., 60 minutes, TLC analysis", "summary_of_the_method": "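Radiolabelled compounds were incubated in heparin-treated pooled normal human plasma at 37° C for 60 minutes. After methanol deproteinization and centrifugation, stability was assessed by TLC under the conditions used for each compound's synthesis.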"}}, "data": [{"substance": "Methyl 1-[4-(1-cyclopropyl-6-[^123I]iodo-1H-imidazobenzo-2-yl)-3-pyridinylmethyl)]-1H-imidazolecarboxylate [[^123I] 601]", "values": [{"measurement": "B2/B1 accumulation ratio", "setting": "[1]", "result": 1.05}, {"measurement": "B2 (PSL value, aldosterone-producing adenoma)", "setting": "[1]; site 71a", "result": 3201}, {"measurement": "B1 (PSL value, normal adrenal cortex)", "setting": "[1]; site 72a", "result": 3040}, {"measurement": "Adrenal gland/blood ratio of radioactivity accumulation", "setting": "[2]; 10 min after administration", "result": "49.76 ± 8.04"}, {"measurement": "Adrenal gland/fat ratio of radioactivity accumulation", "setting": "[2]; 10 min after administration", "result": "48.18 ± 26.02"}, {"measurement": "Adrenal gland/kidney ratio of radioactivity accumulation", "setting": "[2]; 10 min after administration", "result": "11.53 ± 2.04"}, {"measurement": "Adrenal gland/liver ratio of radioactivity accumulation", "setting": "[2]; 10 min after administration", "result": "3.21 ± 0.44"}, {"measurement": "Adrenal gland/muscle ratio of radioactivity accumulation", "setting": "[2]; 10 min after administration", "result": "51.74 ± 11.28"}, {"measurement": "Adrenal gland/small intestine ratio of radioactivity accumulation", "setting": "[2]; 10 min after administration", "result": "6.93 ± 2.04"}, {"measurement": "Radioactivity distribution Adrenal gland", "setting": "[2]; 10 min after administration", "result": "13.40 ± 2.41", "unit": "% ID/g"}, {"measurement": "Radioactivity distribution Bladder (including urine)", "setting": "[2]; 10 min after administration", "result": "0.65 ± 0.26", "unit": "% ID/g"}, {"measurement": "Radioactivity distribution Blood", "setting": "[2]; 10 min after administration", "result": "0.27 ± 0.01", "unit": "% ID/g"}, {"measurement": "Radioactivity distribution Fat", "setting": "[2]; 10 min after administration", "result": "0.34 ± 0.16", "unit": "% ID/g"}, {"measurement": "Radioactivity distribution Heart", "setting": "[2]; 10 min after administration", "result": "0.61 ± 0.03", "unit": "% ID/g"}, {"measurement": "Radioactivity distribution Kidney", "setting": "[2]; 10 min after administration", "result": "1.16 ± 0.02", "unit": "% ID/g"}, {"measurement": "Radioactivity distribution Large intestine", "setting": "[2]; 10 min after administration", "result": "0.14 ± 0.01", "unit": "% ID/g"}, {"measurement": "Radioactivity distribution Liver", "setting": "[2]; 10 min after administration", "result": "4.15 ± 0.27", "unit": "% ID/g"}, {"measurement": "Radioactivity distribution Lung", "setting": "[2]; 10 min after administration", "result": "0.54 ± 0.01", "unit": "% ID/g"}, {"measurement": "Radioactivity distribution Muscle (lower limbs)", "setting": "[2]; 10 min after administration", "result": "0.26 ± 0.02", "unit": "% ID/g"}, {"measurement": "Radioactivity distribution Remaining whole body", "setting": "[2]; 10 min after administration", "result": "0.30 ± 0.01", "unit": "% ID/g"}, {"measurement": "Radioactivity distribution Small intestine", "setting": "[2]; 10 min after administration", "result": "1.99 ± 0.27", "unit": "% ID/g"}, {"measurement": "Radioactivity distribution Spleen", "setting": "[2]; 10 min after administration", "result": "0.51 ± 0.02", "unit": "% ID/g"}, {"measurement": "Radioactivity distribution Stomach", "setting": "[2]; 10 min after administration", "result": "0.83 ± 0.25", "unit": "% ID/g"}, {"measurement": "Radioactivity distribution Testis", "setting": "[2]; 10 min after administration", "result": "0.32 ± 0.01", "unit": "% ID/g"}, {"measurement": "Radioactivity distribution Thyroid gland", "setting": "[2]; 10 min after administration", "result": "0.62 ± 0.09", "unit": "% ID/g"}, {"measurement": "Radioactivity distribution Whole brain", "setting": "[2]; 10 min after administration", "result": "0.15 ± 0.01", "unit": "% ID/g"}, {"measurement": "Adrenal gland/blood ratio of radioactivity accumulation", "setting": "[2]; 30 min after administration", "result": "88.31 ± 19.36"}, {"measurement": "Adrenal gland/fat ratio of radioactivity accumulation", "setting": "[2]; 30 min after administration", "result": "34.33 ± 3.72"}, {"measurement": "Adrenal gland/kidney ratio of radioactivity accumulation", "setting": "[2]; 30 min after administration", "result": "28.94 ± 22.29"}, {"measurement": "Adrenal gland/liver ratio of radioactivity accumulation", "setting": "[2]; 30 min after administration", "result": "6.49 ± 1.59"}, {"measurement": "Adrenal gland/muscle ratio of radioactivity accumulation", "setting": "[2]; 30 min after administration", "result": "72.90 ± 18.29"}, {"measurement": "Adrenal gland/small intestine ratio of radioactivity accumulation", "setting": "[2]; 30 min after administration", "result": "3.30 ± 0.96"}, {"measurement": "Radioactivity distribution Adrenal gland", "setting": "[2]; 30 min after administration", "result": "17.21 ± 1.46", "unit": "% ID/g"}, {"measurement": "Radioactivity distribution Bladder (including urine)", "setting": "[2]; 30 min after administration", "result": "0.41 ± 0.03", "unit": "% ID/g"}, {"measurement": "Radioactivity distribution Blood", "setting": "[2]; 30 min after administration", "result": "0.20 ± 0.03", "unit": "% ID/g"}, {"measurement": "Radioactivity distribution Fat", "setting": "[2]; 30 min after administration", "result": "0.50 ± 0.03", "unit": "% ID/g"}, {"measurement": "Radioactivity distribution Heart", "setting": "[2]; 30 min after administration", "result": "0.42 ± 0.08", "unit": "% ID/g"}, {"measurement": "Radioactivity distribution Kidney", "setting": "[2]; 30 min after administration", "result": "0.80 ± 0.39", "unit": "% ID/g"}, {"measurement": "Radioactivity distribution Large intestine", "setting": "[2]; 30 min after administration", "result": "0.15 ± 0.01", "unit": "% ID/g"}, {"measurement": "Radioactivity distribution Liver", "setting": "[2]; 30 min after administration", "result": "2.71 ± 0.39", "unit": "% ID/g"}, {"measurement": "Radioactivity distribution Lung", "setting": "[2]; 30 min after administration", "result": "0.43 ± 0.07", "unit": "% ID/g"}, {"measurement": "Radioactivity distribution Muscle (lower limbs)", "setting": "[2]; 30 min after administration", "result": "0.24 ± 0.04", "unit": "% ID/g"}, {"measurement": "Radioactivity distribution Remaining whole body", "setting": "[2]; 30 min after administration", "result": "0.24 ± 0.03", "unit": "% ID/g"}, {"measurement": "Radioactivity distribution Small intestine", "setting": "[2]; 30 min after administration", "result": "5.54 ± 1.72", "unit": "% ID/g"}, {"measurement": "Radioactivity distribution Spleen", "setting": "[2]; 30 min after administration", "result": "0.35 ± 0.07", "unit": "% ID/g"}, {"measurement": "Radioactivity distribution Stomach", "setting": "[2]; 30 min after administration", "result": "0.86 ± 0.23", "unit": "% ID/g"}, {"measurement": "Radioactivity distribution Testis", "setting": "[2]; 30 min after administration", "result": "0.31 ± 0.05", "unit": "% ID/g"}, {"measurement": "Radioactivity distribution Thyroid gland", "setting": "[2]; 30 min after administration", "result": "0.69 ± 0.26", "unit": "% ID/g"}, {"measurement": "Radioactivity distribution Whole brain", "setting": "[2]; 30 min after administration", "result": "0.11 ± 0.02", "unit": "% ID/g"}, {"measurement": "Adrenal gland/blood ratio of radioactivity accumulation", "setting": "[2]; 60 min after administration", "result": "73.52 ± 21.70"}, {"measurement": "Adrenal gland/fat ratio of radioactivity accumulation", "setting": "[2]; 60 min after administration", "result": "18.31 ± 9.45"}, {"measurement": "Adrenal gland/kidney ratio of radioactivity accumulation", "setting": "[2]; 60 min after administration", "result": "10.42 ± 4.49"}, {"measurement": "Adrenal gland/liver ratio of radioactivity accumulation", "setting": "[2]; 60 min after administration", "result": "4.79 ± 1.48"}, {"measurement": "Adrenal gland/muscle ratio of radioactivity accumulation", "setting": "[2]; 60 min after administration", "result": "63.30 ± 21.65"}, {"measurement": "Adrenal gland/small intestine ratio of radioactivity accumulation", "setting": "[2]; 60 min after administration", "result": "0.99 ± 0.55"}, {"measurement": "Radioactivity distribution Adrenal gland", "setting": "[2]; 60 min after administration", "result": "8.87 ± 3.98", "unit": "% ID/g"}, {"measurement": "Radioactivity distribution Bladder (including urine)", "setting": "[2]; 60 min after administration", "result": "1.17 ± 0.51", "unit": "% ID/g"}, {"measurement": "Radioactivity distribution Blood", "setting": "[2]; 60 min after administration", "result": "0.12 ± 0.02", "unit": "% ID/g"}, {"measurement": "Radioactivity distribution Fat", "setting": "[2]; 60 min after administration", "result": "0.50 ± 0.09", "unit": "% ID/g"}, {"measurement": "Radioactivity distribution Heart", "setting": "[2]; 60 min after administration", "result": "0.26 ± 0.05", "unit": "% ID/g"}, {"measurement": "Radioactivity distribution Kidney", "setting": "[2]; 60 min after administration", "result": "0.84 ± 0.09", "unit": "% ID/g"}, {"measurement": "Radioactivity distribution Large intestine", "setting": "[2]; 60 min after administration", "result": "0.14 ± 0.02", "unit": "% ID/g"}, {"measurement": "Radioactivity distribution Liver", "setting": "[2]; 60 min after administration", "result": "1.80 ± 0.26", "unit": "% ID/g"}, {"measurement": "Radioactivity distribution Lung", "setting": "[2]; 60 min after administration", "result": "0.26 ± 0.03", "unit": "% ID/g"}, {"measurement": "Radioactivity distribution Muscle (lower limbs)", "setting": "[2]; 60 min after administration", "result": "0.14 ± 0.02", "unit": "% ID/g"}, {"measurement": "Radioactivity distribution Remaining whole body", "setting": "[2]; 60 min after administration", "result": "0.15 ± 0.01", "unit": "% ID/g"}, {"measurement": "Radioactivity distribution Small intestine", "setting": "[2]; 60 min after administration", "result": "9.33 ± 1.02", "unit": "% ID/g"}, {"measurement": "Radioactivity distribution Spleen", "setting": "[2]; 60 min after administration", "result": "0.20 ± 0.03", "unit": "% ID/g"}, {"measurement": "Radioactivity distribution Stomach", "setting": "[2]; 60 min after administration", "result": "0.50 ± 0.29", "unit": "% ID/g"}, {"measurement": "Radioactivity distribution Testis", "setting": "[2]; 60 min after administration", "result": "0.22 ± 0.05", "unit": "% ID/g"}, {"measurement": "Radioactivity distribution Thyroid gland", "setting": "[2]; 60 min after administration", "result": "0.93 ± 0.47", "unit": "% ID/g"}, {"measurement": "Radioactivity distribution Whole brain", "setting": "[2]; 60 min after administration", "result": "0.10 ± 0.04", "unit": "% ID/g"}, {"measurement": "Radiochemical purity after incubation in human plasma", "setting": "[3]", "result": 98, "unit": "%"}]}]}
